Drawing on ChEMBL document CHEMBL6182852, “Discovery of ATP competitive PDHK1/2 dual inhibitors” (Bioorg Med Chem Lett, 2025), this text covers IC50 and CC50 for seven compounds.

Test [1] in a line: Inhibition of LPS-induced TNF release in human PBMC cells. It counts as functional, cell-based.
Test [2] can be described thus: Cytotoxicity against human PBMC cells.
In test [3] the target is [Pyruvate dehydrogenase (acetyl-transferring)] kinase isozyme 1, mitochondrial (Homo sapiens, UniProt Q15118). Kind of test: Inhibition of PDHK1 (unknown origin) in presence of 0.5 uM ATP.
A short description of test [4]: Inhibition of E1 PDHK (unknown origin) phosphorylation at S232 residues. Further details: species or system Homo sapiens.
Test [5] has as its target [Pyruvate dehydrogenase (acetyl-transferring)] kinase isozyme 2, mitochondrial (Homo sapiens, UniProt Q15119). Kind of test: Inhibition of PDHK2 (unknown origin).

[Pyruvate dehydrogenase (acetyl-transferring)] kinase isozyme 1, mitochondrial, sequence (Q15118 whole entry): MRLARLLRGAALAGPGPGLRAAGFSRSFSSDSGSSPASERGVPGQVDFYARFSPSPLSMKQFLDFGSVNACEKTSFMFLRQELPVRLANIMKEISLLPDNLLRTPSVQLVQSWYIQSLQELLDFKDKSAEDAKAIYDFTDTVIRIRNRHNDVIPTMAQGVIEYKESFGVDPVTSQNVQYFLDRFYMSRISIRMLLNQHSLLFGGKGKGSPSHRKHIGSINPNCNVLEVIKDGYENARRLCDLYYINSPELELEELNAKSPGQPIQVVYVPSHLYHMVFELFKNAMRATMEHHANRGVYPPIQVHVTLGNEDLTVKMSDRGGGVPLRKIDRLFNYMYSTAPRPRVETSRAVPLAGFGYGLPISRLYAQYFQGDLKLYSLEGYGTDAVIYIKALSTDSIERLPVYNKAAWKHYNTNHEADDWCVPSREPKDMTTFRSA

One may read the IC50 as the concentration needed to halve the response being measured. Usually CC50 stands for the concentration at which the toxic effect on the cells reaches its halfway point. Lower therefore signals harm at low concentration. As for `CCNc1cc(F)cc2c1NC(=O)C2(C)N1CCC[C@@H](Nc2ccc(C(=O)O)c(Cl)c2)C1` (stereo partly drawn), in test [1], the IC50 was over 100 µM. The compound also returned a CC50 in test [2] of over 100 µM.
In test [1], `CCNc1cc(F)cc2c1NC(=O)C2(C)N1CCCCC1` (racemic) came in with a concentration for half-maximal inhibition (IC50) of 49 µM. For the same compound, in test [2], the CC50 was over 100 µM.
With `CSc1cc(-c2nccs2)n[nH]1`, the IC50 in test [3] was over 100 µM.
The compound `CCNc1cc(F)cc2c1NC(=O)C2(C)N1CCC[C@@H](Nc2ccc(C#N)nc2)C1` (mixture of isomers) returned an IC50 in test [1] of 4.5 µM. In test [2], this compound came in with a CC50 of 56.9 µM.
Regarding `CCNc1cc(F)cc2c1[nH]c(=O)n2-c1ccc(Oc2cccc(S(=O)(=O)F)c2)cc1`, the results for the half-inhibitory concentration (IC50) in test [4], in test [5] and in test [1] were 5.3 µM, 0.12 µM and 24.5 µM, respectively. Moreover, the CC50 in test [2] was over 100 µM.
For `CCNc1cc(F)cc2c1NC(=O)C2(CC)N1CCC[C@@H](NC(=O)C2CC3(C2)CN(C#N)C3)C1` (mixture of isomers), the figures for the IC50 in test [5] and in test [1] were 0.015 µM and 0.9 µM, respectively. For the same compound, in test [2], the CC50 is over 100 µM.
With `CCNc1cc(F)cc2c1[nH]c(=O)n2-c1c(C)cc(Oc2cccc(C(=O)O)c2)cc1Cl`, the values for the IC50 in test [4], in test [5] and in test [1] were over 100 µM, 0.034 µM and 71 µM, respectively. The same compound displayed a CC50 in test [2] of over 100 µM.
